Values after ≈ are worked out from the molar mass of the structure shown. Values joined by “and” are separate entries in the source; they are usually repeats but may differ in a detail not shown here. Equal entries are not always repeated. Where two headings read alike, the source gives them in different places.
How the values were obtained:
[1] = test system: Pseudomonas aeruginosa Pa14; test: FIC index of combinations with conventional antibiotics, strain Pa14; type: cell-based; details: strain Pa14 (Col^R)
Experimental: (§1) The bacterial inoculum was established by the dilution method from actively-growing cultures in Mueller-Hinton (MH) broth, standardized with 0.5 McFarland turbidity standard as described in the CLSI method M26-A.
(§2) Both the bacterial inoculum and the antimicrobial agents, including the compounds structurally related to cysteamine, were added simultaneously to the plates. The plates were incubated at 37° C. for 24 h and the optical density was read at 625 nm on a microtitre plate reader (BioTek Powerwave XS, Winooski, USA). The MIC was obtained as the lowest concentration of antimicrobial showing total inhibition of bacterial growth.
(§3) The FIC corresponds to an interaction coefficient indicating whether the combination of antimicrobial agents is synergistic, additive, antagonist or neutral. The FIC is determined by comparing the activity of an agent in combination (MIC of agent A+agent B) with the activity of the agent alone (MIC of agent A or agent B) as follow (Singh et al., 2000): FIC=MICA[combination]/MICA[alone]+MICB[combination]/MICB[alone]
(§4) Additive combinations of two antimicrobial agents are indicated by a FIC index of 1, whereas a FIC index<1 indicates synergistic combinations. Neutral combinations would give a FIC between 1 and 4, a FIC index higher than 4 indicates antagonist effects between the two antimicrobial agents.
(§5) The FIC was also calculated to assess the interaction of two antimicrobial agents in combination against bacterial samples.

[2] = test system: Pseudomonas aeruginosa Pa058; test: FIC index of combinations with conventional antibiotics, strain Pa058; type: cell-based; details: strain Pa058 (Col^R, Cip^R Tob^R), listed as Cysteamine (NM001)
Experimental: as §1, §2, §3, §4, §5

[3] = test system: Pseudomonas aeruginosa Pa57388A; test: FIC index of combinations with conventional antibiotics, strain Pa57388A; type: cell-based; details: strain Pa57388A (Col^R), listed as Cysteamine (NM001)
Experimental: as §1, §2, §3, §4, §5

[4] = test system: Pseudomonas aeruginosa Pa57388D; test: FIC index of combinations with conventional antibiotics, strain Pa57388D; type: cell-based; details: strain Pa57388D (Col^R, Gent^R), listed as Cysteamine (NM001)
Experimental: as §1, §2, §3, §4, §5

[5] = test system: Pseudomonas aeruginosa Pa01; test: MIC determination, strain Pa01; type: cell-based
Experimental: as §1
as §2, with “The MIC was obtained as the lowest concentration of antimicrobial showing total inhibition of bacterial growth.” left out
(§6) A number of compounds related in chemical structure to cysteamine were examined for antimicrobial activity; cystamine (dihydrochloride salt), taurine and 2,3-dimercaptosuccinic acid. Other compounds chemically related to cysteamine are known, but are toxic, and are therefore of no utility in a drug of this nature.

[6] = test system: Pseudomonas aeruginosa Pa14; test: MIC determination, strain Pa14; type: cell-based
Experimental: as §1
as §2, with “The MIC was obtained as the lowest concentration of antimicrobial showing total inhibition of bacterial growth.” left out
as §6

[7] = test system: Pseudomonas aeruginosa NH57388A; test: MIC determination, strain NH57388A; type: cell-based
Experimental: as §1
as §2, with “The MIC was obtained as the lowest concentration of antimicrobial showing total inhibition of bacterial growth.” left out
as §6

[8] = test system: Burkholderia cepacia NCTC10743; test: MIC100 and FIC of cysteamine and tobramycin, MH broth (CLSI) and artificial sputum medium; type: cell-based
Experimental: as §2, §3
(§7) The complex pathophysiology of CF is characterized by airway obstruction caused by abnormal mucus secretion and infection, with 60-80% of patients being chronically infected with the biofilm-forming bacteria Pseudomonas aeruginosa (George et al., 2009). With a prevalence of up to 10% in adult CF patients, B. cepacia complex is a rare but major concern due to its high virulence, morbidity and transmissibility (O'Malley, 2009; Brüssow, 2012). We tested the antimicrobial activity of cysteamine-tobramycin combinations in artificial sputum medium (Yang, et al., 2011) against 4 P. aeruginosa (PAO1, ATCC27853, DSMZ1128 and DSMZ1299) and 2 B. cepacia complex strains (NCTC10743 and NCTC10744).

[9] = test system: Burkholderia cepacia NCTC10744; test: as above; type: cell-based; details: read-out: MIC100, agent alone
Experimental: as §2, §3, §7

[10] = test system: 4 P. aeruginosa (PAO1, ATCC27853, DSMZ1128 and DSMZ1299) and 2 B. cepacia complex strains (NCTC10743 and NCTC10744); test: microbe, parasite or virus in culture; type: cell-based, Pseudomonas aeruginosa; Burkholderia cepacia complex; details: Pseudomonas aeruginosa, read-out: MIC100
From the text: as §7

[11] = test system: P. aeruginosa PAO1 planktonic cells; test: MIC in physiologically-relevant ionic concentrations (FIG. 7); type: cell-based, Pseudomonas aeruginosa
Experimental: Bacterial growth was followed over a 24 h period and absorbance read using a BioTek microtitre plate reader at 625 nm. Total bacterial growth inhibition was retained in the presence of NaCl, CaCl2 or DNA and at two-fold the normal MIC100 in the presence of mucin. Tobramycin activity was inhibited in the presence of the divalent cation ca^2+ and in the presence of the anionic polymer DNA. […] A similar method as described above (1.4) was used for the determination of the antimicrobial activity of cysteamine (Lynovex®) in the presence of high ionic concentrations. […] Bacterial growth was followed over a 24 h period and absorbance read using a BioTek microtitre plate reader at 625 nm.

[12] = test system: Pseudomonas aeruginosa cells; test: Tobramycin alone and with cysteamine in non-mucous and mucous environment (FIG. 3); type: cell-based; details: mucous environment (NaCl and/or mucin)
From the text: FIG. 3: provides a comparison of the activity of Tobramycin alone and when in combination with cysteamine (NM001) against Pseudomonas aeruginosa cells cultured in a non-mucous environment and when cultured in a mucous environment replicating that found within the CF lung (in the presence of NaCl and/or mucin).

[13] = in combination with Ciprofloxacin

## NCCS [Cysteamine, cysteamine]
[1]; in combination with Ciprofloxacin, listed as Cysteamine (NM001)
  FICI (Additive) Cip: 0.75 and 0.63
[1]; in combination with Colistin
  FICI (Synergy) Col: 0.38
[1]; in combination with Colistin, listed as Cysteamine (NM001)
  FICI (Additive) Col: 0.53 and 0.5 and 0.56
[1]; in combination with Gentamicin, listed as Cysteamine (NM001)
  FICI (Additive) Gent: 0.63 and 0.5 and 0.75
[1]; in combination with Tobramycin, listed as Cysteamine (NM001)
  FICI (Additive) Tob: 0.56 and 0.75 and 0.5
[2]; [13]
  FICI (Additive) Cip: 0.53 and 0.56
[2]; in combination with Colistin
  FICI (Additive) Col: 0.75 and 0.53 and 0.56 and 0.5
[2]; in combination with Gentamicin
  FICI (Additive) Gent: 0.56 and 0.5 and 0.75
[2]; in combination with Tobramycin
  FICI (Additive) Tob: 0.52 and 0.56 and 0.5 and 0.53 and 0.63 and 0.75
[3]; [13]
  FICI (Additive) Cip: 0.63
[3]; in combination with Colistin
  FICI (Additive) Col: 0.52 and 0.51 and 0.63 and 0.56
  FICI (Synergy) Col: 0.38 and 0.31
[3]; in combination with Gentamicin
  FICI (Additive) Gent: 0.5 and 0.56 and 0.75
  FICI (Synergy) Gent: 0.38
[3]; in combination with Tobramycin
  FICI (Additive) Tob: 0.63 and 0.75 and 0.5 and 0.56
  FICI (Synergy) Tob: 0.31 and 0.38
[4]; [13]
  FICI (Additive) Cip: 0.53 and 0.56 and 0.52 and 0.75
[4]; in combination with Colistin
  FICI (Additive) Col: 0.62 and 0.53 and 0.56 and 0.5
  FICI (Synergy) Col: 0.31 and 0.38
[4]; in combination with Gentamicin
  FICI (Additive) Gent: 0.5 and 0.63 and 0.51
  FICI (Synergy) Gent: 0.38
[4]; in combination with Tobramycin
  FICI (Additive) Tob: 0.56 and 0.51 and 0.52
  FICI (Synergy) Tob: 0.38 and 0.31 and 0.25
[5]
  MIC50: 250 to 500 µg/mL (≈ 3.24 to 6.48 mM)
  MIC90: 500 µg/mL (≈ 6.48 mM)
[5]; read-out: MIC100
  MIC: 667 µg/mL (≈ 8.64 mM)
[6]
  MIC50: 125 to 250 µg/mL (≈ 1.62 to 3.24 mM)
  MIC90: 500 µg/mL (≈ 6.48 mM)
[6]; read-out: MIC100
  MIC: 1330 µg/mL (≈ 17.3 mM)
[7]
  MIC50: 250 µg/mL (≈ 3.24 mM)
  MIC90: 250 to 500 µg/mL (≈ 3.24 to 6.48 mM)
[7]; read-out: MIC100
  MIC: 667 µg/mL (≈ 8.64 mM)
[8]; NCTC10743, B. cepacia NCTC10743, FIG. 6, read-out: MIC100, agent alone
  MIC: 500 µg/mL
[8]; NCTC10743, B. cepacia NCTC10743, in both media (MH broth and ASM), FIG. 11, read-out: MIC100, agent alone
  MIC: 500 µg/mL
[8]; NCTC10743, B. cepacia NH10743, ASM (Artificial Sputum Medium), read-out: MIC100, agent alone
  MIC: 500 µg/mL
[8]; NCTC10743, B. cepacia NH10743, CLSI, read-out: MIC100, agent alone
  MIC: 250 µg/mL
[9]; NCTC10744, B. cepacia NH10744, ASM (Artificial Sputum Medium)
  MIC: 500 µg/mL
[9]; NCTC10744, B. cepacia NH10744, CLSI
  MIC: 250 µg/mL
[10]
  MIC: 250 to 500 µg/mL
[11]; in the presence of 150 mM NaCl, 1.7 mM CaCl2 or 1 mg/ml DNA
  total bacterial growth inhibition (MIC100) versus normal condition: retained
[11]; in the presence of 1% (w/v) porcine gastric mucin
  concentration for total growth inhibition relative to the normal MIC100: two-fold
[12]
  effect on activity of conventional antibiotics: restores antibiotic activity
